Source: ChEMBL document CHEMBL4622897, “Synthesis and biological evaluation of backbone-aminated analogues of gramicidin S” (Bioorg Med Chem Lett, 2020)
Numbered stars: 1 amine (or outer) side, 2 acyl side, 3 side chain; on linkers, the order of the positions; unused ones are H or OH. Square brackets hold non-standard residues; d marks the D form. Peptide text beside a SMILES is read from it. X1 = NN([C@H](Cc1ccccc1)C(=O)[*:2])[*:1]; Orn(Nα-NH2) = NCCC[C@H](NN)C(=O)O; Orn = NCCC[C@H](N)C(=O)O

What was measured:
[1] = test system: Klebsiella pneumoniae; assay: Antibacterial activity against Klebsiella pneumoniae 1433 assessed as growth inhibition by microbroth dilution assay; assay type: functional
[2] = test system: Pseudomonas aeruginosa; assay: Antibacterial activity against Pseudomonas aeruginosa 1419 assessed as growth inhibition by microbroth dilution assay; assay type: functional
[3] = test system: Staphylococcus aureus; assay: Antibacterial activity against Staphylococcus aureus 635 assessed as growth inhibition by microbroth dilution assay; assay type: functional
[4] = test system: Acinetobacter baumannii; assay: Antibacterial activity against Acinetobacter baumannii 5075 assessed as growth inhibition by microbroth dilution assay; assay type: functional; settings: AB5075
[5] = test system: Enterococcus faecium; assay: Antibacterial activity against Enterococcus faecium 1450 assessed as growth inhibition by microbroth dilution assay; assay type: functional
[6] = test system: Enterobacter cloacae; assay: Antibacterial activity against Enterobacter cloacae 1454 assessed as growth inhibition by microbroth dilution assay; assay type: functional
[7] = test system: Erythrocyte; assay: Hemolytic activity in human RBC assessed as hemolysis at 50 uM; assay type: ADME, cell-based
[8] = Hemolytic activity in human RBC assessed as hemolysis at 50 uM relative to control; assay type: ADME, cell-based, Erythrocyte; settings: red blood cells (erythrocytes), read-out: Activity

Row | SMILES | MIC [1] | MIC [2] | MIC [3] | MIC [4] | MIC [5] | MIC [6] | Activity [7] | hemolysis at 50 µM [8]
1 | CC(C)C[C@@H]1NC(=O)[C@H](CCCN)N(N)C(=O)[C@H](C(C)C)NC(=O)[C@@H]2CCCN2C(=O)[C@@H](Cc2ccccc2)N(N)C(=O)[C@H](CC(C)C)NC(=O)[C@H](CCCN)N(N)C(=O)[C@H](C(C)C)NC(=O)[C@@H]2CCCN2C(=O)[C@@H](Cc2ccccc2)NC1=O (cyclo(L[dF]PV[Orn(Nα-NH2)]L[X1]PV[Orn(Nα-NH2)])) | > 50 µM | 12 µM | 2 µM | 6 µM | 2 µM | > 50 µM |  | 
2 | CC(C)C[C@@H]1NC(=O)[C@H](CCCN)NC(=O)[C@H](C(C)C)NC(=O)[C@@H]2CCCN2C(=O)[C@@H](Cc2ccccc2)N(N)C(=O)[C@H](CC(C)C)NC(=O)[C@H](CCCN)NC(=O)[C@H](C(C)C)NC(=O)[C@@H]2CCCN2C(=O)[C@@H](Cc2ccccc2)N(N)C1=O (cyclo(L[X1]PV[Orn]L[X1]PV[Orn])) | > 50 µM | 35 µM | 4 µM | 12.5 µM | 4 µM | > 50 µM | Toxic | 
3 | CC(C)C[C@@H]1NC(=O)[C@H](CCCN)N(N)C(=O)[C@H](C(C)C)NC(=O)[C@@H]2CCCN2C(=O)[C@@H](Cc2ccccc2)NC(=O)[C@H](CC(C)C)NC(=O)[C@H](CCCN)N(N)C(=O)[C@H](C(C)C)NC(=O)[C@@H]2CCCN2C(=O)[C@@H](Cc2ccccc2)NC1=O (cyclo(L[dF]PV[Orn(Nα-NH2)]L[dF]PV[Orn(Nα-NH2)])) | 45 µM | 10 µM | 2 µM | 4 µM | 2 µM | 20 µM |  | 16%
4 | CC(C)C[C@@H]1NC(=O)[C@H](CCCN)NC(=O)[C@H](C(C)C)NC(=O)[C@@H]2CCCN2C(=O)[C@@H](Cc2ccccc2)N(N)C(=O)[C@H](CC(C)C)NC(=O)[C@H](CCCN)NC(=O)[C@H](C(C)C)NC(=O)[C@@H]2CCCN2C(=O)[C@@H](Cc2ccccc2)NC1=O (cyclo(L[dF]PV[Orn]L[X1]PV[Orn])) | 45 µM | 20 µM | 4 µM | 6 µM | 5 µM | 40 µM |  | 
5 | CC(C)C[C@@H]1NC(=O)[C@H](CCCN)NC(=O)[C@H](C(C)C)NC(=O)[C@@H]2CCCN2C(=O)[C@@H](Cc2ccccc2)N(N)C(=O)[C@H](CC(C)C)NC(=O)[C@H](CCCN)N(N)C(=O)[C@H](C(C)C)NC(=O)[C@@H]2CCCN2C(=O)[C@@H](Cc2ccccc2)N(N)C1=O (cyclo(L[X1]PV[Orn]L[X1]PV[Orn(Nα-NH2)])) | 50 µM | 20 µM | 3 µM | 6.5 µM | 3 µM | 35 µM |  | 
6 | CC(C)C[C@@H]1NC(=O)[C@H](CCCN)NC(=O)[C@H](C(C)C)NC(=O)[C@@H]2CCCN2C(=O)[C@@H](Cc2ccccc2)N(N)C(=O)[C@H](CC(C)C)NC(=O)[C@H](CCCN)N(N)C(=O)[C@H](C(C)C)NC(=O)[C@@H]2CCCN2C(=O)[C@@H](Cc2ccccc2)NC1=O (cyclo(L[dF]PV[Orn(Nα-NH2)]L[X1]PV[Orn])) | 45 µM | 15 µM | 2 µM | 6.5 µM | 3 µM | 15 µM |  | 
7 | CC(C)C[C@@H]1NC(=O)[C@H](CCCN)N(N)C(=O)[C@H](C(C)C)NC(=O)[C@@H]2CCCN2C(=O)[C@@H](Cc2ccccc2)N(N)C(=O)[C@H](CC(C)C)NC(=O)[C@H](CCCN)N(N)C(=O)[C@H](C(C)C)NC(=O)[C@@H]2CCCN2C(=O)[C@@H](Cc2ccccc2)N(N)C1=O (cyclo(L[X1]PV[Orn(Nα-NH2)]L[X1]PV[Orn(Nα-NH2)])) | > 50 µM | 15 µM | 2 µM | 5 µM | 2 µM | > 50 µM | Toxic | 
8 | CC(C)C[C@@H]1NC(=O)[C@H](CCCN)N(N)C(=O)[C@H](C(C)C)NC(=O)[C@@H]2CCCN2C(=O)[C@@H](Cc2ccccc2)N(N)C(=O)[C@H](CC(C)C)NC(=O)[C@H](CCCN)NC(=O)[C@H](C(C)C)NC(=O)[C@@H]2CCCN2C(=O)[C@@H](Cc2ccccc2)NC1=O (cyclo(L[dF]PV[Orn]L[X1]PV[Orn(Nα-NH2)])) | 45 µM | 15 µM | 2 µM | 6.5 µM | 3 µM | 30 µM |  | 
9 | CC(C)C[C@@H]1NC(=O)[C@H](CCCN)NC(=O)[C@H](C(C)C)NC(=O)[C@@H]2CCCN2C(=O)[C@@H](Cc2ccccc2)NC(=O)[C@H](CC(C)C)NC(=O)[C@H](CCCN)NC(=O)[C@H](C(C)C)NC(=O)[C@@H]2CCCN2C(=O)[C@@H](Cc2ccccc2)NC1=O (cyclo(V[Orn]L[dF]PV[Orn]L[dF]P)) | 40 µM | 20 µM | 3 µM | 6.5 µM | 3 µM | 35 µM |  | 
10 | CC(C)C[C@@H]1NC(=O)[C@H](CCCN)NC(=O)[C@H](C(C)C)NC(=O)[C@@H]2CCCN2C(=O)[C@@H](Cc2ccccc2)NC(=O)[C@H](CC(C)C)NC(=O)[C@H](CCCN)N(N)C(=O)[C@H](C(C)C)NC(=O)[C@@H]2CCCN2C(=O)[C@@H](Cc2ccccc2)NC1=O (cyclo(L[dF]PV[Orn]L[dF]PV[Orn(Nα-NH2)])) | 40 µM | 13 µM | 2 µM | 6.5 µM | 3 µM | 30 µM |  | 
11 | CC(C)C[C@@H]1NC(=O)[C@H](CCCN)NC(=O)[C@H](C(C)C)NC(=O)[C@@H]2CCCN2C(=O)[C@@H](Cc2ccccc2)NC(=O)[C@H](CC(C)C)NC(=O)[C@H](CCCN)NC(=O)[C@H](C(C)C)NC(=O)[C@@H]2CCCN2C(=O)[C@@H](Cc2ccccc2)NC1=O (cyclo(L[dF]PV[Orn]L[dF]PV[Orn])) |  |  |  |  |  |  |  | 22%
